The assay addresses Plasma kallikrein (Human, UniProt P03952). Description: Inhibitory Activity Assay. Here is the method:
Example compounds were evaluated for inhibition of the human activated kallikrein enzyme in two formats of an assay employing a fluorogenic peptide substrate. In one assay format, the concentrations of reagents were as follows: 20 mM Tris pH 7.5, 1 mM EDTA, 150 mM sodium chloride, 0.1% PEG-400, 0.1% Triton X-100, 500 pM activated kallikrein enzyme, 300 uM Pro-Phe-Arg-7-amido-4-methylcoumarin substrate. Prior to reaction initiation with substrate, enzyme and inhibitors were preincubated for 30 min at RT. After initiation with substrate, reactions were incubated for 10 min at RT and fluorescence emission at 460 nm from 380 nm excitation measured with a microplate reader. In another assay format, the concentrations of reagents were as follows: 20 mM Tris pH 7.5, 1 mM EDTA, 150 mM sodium chloride, 0.1% PEG-400, 0.1% Triton X-100, 5 pM activated kallikrein enzyme, 300 uM Pro-Phe-Arg-7-amido-4-methylcoumarin substrate. Prior to reaction initiation with substrate, enzyme and inhibitors were preincubated for 30 min at RT. After initiation with substrate, reactions were incubated for 18 h at RT and fluorescence emission at 460 nm from 380 nm excitation measured with a microplate reader.

Molecules are shown by their SMILES.

Chain of Plasma kallikrein (P03952 20-390 S143N limits assumed): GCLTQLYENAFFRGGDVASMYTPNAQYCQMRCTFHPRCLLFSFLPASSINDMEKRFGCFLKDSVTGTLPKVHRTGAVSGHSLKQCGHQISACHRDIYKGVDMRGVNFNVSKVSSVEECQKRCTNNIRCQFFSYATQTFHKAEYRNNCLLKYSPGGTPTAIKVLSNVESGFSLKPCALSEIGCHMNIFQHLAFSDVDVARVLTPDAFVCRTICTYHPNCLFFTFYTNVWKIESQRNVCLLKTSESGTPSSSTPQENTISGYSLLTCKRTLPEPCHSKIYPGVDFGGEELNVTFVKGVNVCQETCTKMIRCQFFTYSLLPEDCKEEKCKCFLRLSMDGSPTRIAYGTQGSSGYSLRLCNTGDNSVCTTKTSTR
Chain of Plasma kallikrein (P03952 391-638 limits assumed): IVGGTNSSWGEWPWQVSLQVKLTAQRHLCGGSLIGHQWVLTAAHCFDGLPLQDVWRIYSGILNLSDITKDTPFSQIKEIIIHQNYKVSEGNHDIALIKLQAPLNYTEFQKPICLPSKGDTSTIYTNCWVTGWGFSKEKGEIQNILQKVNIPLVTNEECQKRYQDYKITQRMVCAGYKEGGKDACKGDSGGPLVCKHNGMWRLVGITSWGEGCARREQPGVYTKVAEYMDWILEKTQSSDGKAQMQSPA

As for `O=C(NCc1ncn2ccc(Cl)c(F)c12)c1cn(Cc2cn3ccc(C4CC4)cc3n2)nn1` [US11352356, Compound I-148], the EC50 was less than 1 nM.
`COC(=O)c1cnn(-c2cc(C3CC3)cn3cc(Cn4cc(C(=O)NCc5ncn6ccc(Cl)c(F)c56)nn4)nc23)c1` [US11352356, Compound I-230] had an EC50 of less than 1 nM.
`CC(C)(C)OC(=O)C(C)(C)Oc1cc(C2CC2)cn2cc(Cn3cc(C(=O)NCc4ncn5ccc(Cl)c(F)c45)nn3)nc12` [US11352356, Compound I-212] had an EC50 of less than 1 nM.
With `O=C(NCc1ncn2ccc(Cl)cc12)c1cnn(Cc2cn3ccc(C4CC4)c(F)c3n2)c1` [US11352356, Compound I-144], the EC50 was less than 1 nM.
In turn, `CCOC(COCc1cc(C2CC2)cn2cc(Cn3cc(C(=O)NCc4ncn5ccc(Cl)c(F)c45)nn3)nc12)OCC` [US11352356, Compound I-301] came in with a 50% effective concentration (EC50) of less than 1 nM.
On to `CC(C)(C)[S+]([O-])NCCOCc1cc(C2CC2)cn2cc(Cn3cc(C(=O)NCc4ncn5ccc(Cl)c(F)c45)nn3)nc12` (stereo unspecified) [US11352356, Compound I-302], for which the EC50 is less than 1 nM.

The term EC50 denotes the concentration that produces a half-maximal response.

These data come from BindingDB's records for patent US11352356 (Takeda Pharmaceutical Company Limited, 2022).
